Ki data for 19 molecules are collected here from BindingDB's records for doi:10.1021/acs.biochem.6b00446 (Avanti Polar Lipids, 2016).

The structures appear in SMILES notation. Where “and” joins values, the source holds several entries; their conditions need not be identical. Equal entries are not always repeated.

The experiment deals with T1, Fatty acid-binding protein, liver (Mus musculus, UniProt P12710).
T1 sequence (P12710 whole entry): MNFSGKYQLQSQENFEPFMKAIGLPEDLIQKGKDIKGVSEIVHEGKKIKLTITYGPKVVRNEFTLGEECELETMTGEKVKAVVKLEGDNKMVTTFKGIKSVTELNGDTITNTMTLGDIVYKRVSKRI
The experiment in a line: FABP1 Fluorescent Ligand Displacement Assay. The text has this: Data were corrected for the following blanks/controls: protein only, fluorescent ligand only, fluorescent ligand with anincreasing amount of nonfluorescent ligand, and photobleaching.
Regarding `CCCCC/C=C\C/C=C\C/C=C\C/C=C\CCCC(=O)OC(CO)CO`, the Ki (as a rule, the dissociation constant of the complex between target and ligand, obtained from inhibition or displacement) worked out at 61 nM. The same measure for `CCCCC/C=C\C/C=C\C/C=C\C/C=C\CCCC(=O)Nc1ccc(O)cc1`: 29 nM; for `C=C(C)[C@@H]1CCC(C)=C[C@H]1c1c(O)cc(CCCCC)cc1O` [2-(6-Isopropenyl-3-methyl-cyclohex-2-enyl)-5-pentyl-benzene-1,3-diol (Cannabidiol)]: 167 nM; for `CCCCCCCC/C=C\CCCCCCCC(=O)OC(CO)CO` [2-Oleoylmonoglycerol (2-OG)]: 40 nM. In the case of `CCCCCCCCCCCCCCCC(=O)OC(CO)CO` [2-Palmitoylmonoglycerol (2-PG)], the affinity, expressed as Ki, was 70 nM. The same measure for `CCCCCCC(C)(C)c1cc(O)c2c(c1)OC(C)(C)[C@@H]1CC=C(CO)C[C@@H]21` [(6aR,10aR)-3-(1,1-dimethyl-heptyl)-9-hydroxymethyl-6,6-dimethyl-6a,7,10,10a-tetrahydro-6H-benzo[c]chromen-1-ol]: 850 nM. The same measure for `CCCCCc1cc(O)c2c(c1)OC(C)(C)[C@@H]1CCC(C)=C[C@@H]21` [(10R,10aR)-6,6,9-Trimethyl-3-pentyl-6a,7,8,10a-tetrahydro-6H-benzo[c]chromen-1-ol]: 1000 nM; for `CCc1c(-c2ccccc2)c(-c2ccccc2)nn1-c1ccccc1-c1cccc(OCC(=O)O)c1` [((2'-(5-ETHYL-3,4-DIPHENYL-1H-PYRAZOL-1-YL)-3-BIPHENYLYL)OXY)ACETIC ACID]: 21 nM and 52 nM; for `CCCCCCC(C)(C)c1ccc([C@@H]2C[C@H](O)CC[C@H]2CCCO)c(O)c1` [ChEMBL_75020]: 990 nM. Then `CCC=CCC=CCC=CCC=CCC=CCC=CCCC(=O)NCCO` [Docosahexaenoylethanolamide (DHEA)], with 163 nM. `CCCCCn1cc(C(=O)c2cccc3ccccc23)c2ccccc21` [JWH-018] yielded a Ki of 58 nM. This Ki lies about 2.8-fold lower than the previous one.

The molecule `CCCCCCCC/C=C\CCCCCCCC(=O)N[C@H](CO)Cc1ccc(O)cc1` [OMDM1] yielded a Ki of 40 nM. This Ki and that of the molecule before are within 1.5-fold of each other. Then `CCCCCCCC/C=C\CCCCCCCC(=O)N[C@@H](CO)Cc1ccc(O)cc1` [OMDM2], with 40 nM. The same measure for `CCCCCCCC/C=C\CCCCCCCC(=O)NCCO` [Oleamide MEA]: 43 nM. Then `CC(=O)Nc1ccc(Nc2nc(-c3ccc(Cl)c(Cl)c3)cs2)cc1` [SCPI1], with 350 nM; and `COc1cc([N+](=O)[O-])cc2c1NC(c1ccc(Br)cc1)=NO2` [SCPI3], with 900 nM; and `Cc1ccc2c(c1)-c1c(ssc1=S)C(C)(C)N2C(=O)CC(C)C` [SCPI4], with 33 nM.

`Cc1c(C(=O)NN2CCCCC2)nn(-c2ccc(Cl)cc2Cl)c1-c1ccc(Cl)cc1` [SR141716]: the Ki is 2000 nM. In turn, `CCCCCC=CCC=CCC=CCC=CCCCC(=O)Nc1ccc(O)cc1C` [VDM11] displayed a Ki of 37 nM.
